Test results as given in US4211764A, “Gastric secretion stimulation with 2-amino-5-(2-aminoethyl)-1,3,4-thiadiozole” (priority 1978, dated 1980).
“Also recorded” adds a separate entry of the source. Read-outs that look alike come from different tables or passages of the source.

Assays:
arterial pressure [1] = experiment: Arterial pressure in anesthetized cats
Method: These experiments were performed on 11 cats weighing 2.5 to 4.0 kg and anesthetized with urethane-chlorazol mixture containing 60 mg/kg of chlorazol and 600 mg/kg of urethane. The arterial pressure was measured in the common carotid artery with the aid of a mercury pressure gauge.

H1 -receptors = target: T1, H1 -receptors (Cavia porcellus, UniProt P31389); experiment: Contraction of isolated ileum; conditions: guinea pig ileum; read-out: pD2 value in relation to H1 -receptors (converted)
T1 construct: from tissue; host or cells: isolated guinea pig ileum
T1 sequence (P31389 whole entry): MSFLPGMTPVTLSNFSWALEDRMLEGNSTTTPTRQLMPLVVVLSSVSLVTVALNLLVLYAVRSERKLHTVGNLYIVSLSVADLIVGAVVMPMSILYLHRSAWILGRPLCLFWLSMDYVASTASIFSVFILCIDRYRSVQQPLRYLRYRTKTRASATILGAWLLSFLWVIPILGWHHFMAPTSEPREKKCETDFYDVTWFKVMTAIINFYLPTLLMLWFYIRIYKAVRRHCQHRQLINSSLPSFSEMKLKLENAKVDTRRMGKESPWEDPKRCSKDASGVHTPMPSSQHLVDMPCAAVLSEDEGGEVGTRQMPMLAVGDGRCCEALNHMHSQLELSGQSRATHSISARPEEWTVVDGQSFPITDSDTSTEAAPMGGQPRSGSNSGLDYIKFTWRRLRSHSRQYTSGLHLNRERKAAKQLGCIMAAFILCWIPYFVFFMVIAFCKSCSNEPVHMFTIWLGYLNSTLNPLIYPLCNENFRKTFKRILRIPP

H2 -receptors = H2 -receptors (Rattus norvegicus, UniProt P25102); conditions: uterus horn
H2 -receptors, sequence (P25102 whole entry): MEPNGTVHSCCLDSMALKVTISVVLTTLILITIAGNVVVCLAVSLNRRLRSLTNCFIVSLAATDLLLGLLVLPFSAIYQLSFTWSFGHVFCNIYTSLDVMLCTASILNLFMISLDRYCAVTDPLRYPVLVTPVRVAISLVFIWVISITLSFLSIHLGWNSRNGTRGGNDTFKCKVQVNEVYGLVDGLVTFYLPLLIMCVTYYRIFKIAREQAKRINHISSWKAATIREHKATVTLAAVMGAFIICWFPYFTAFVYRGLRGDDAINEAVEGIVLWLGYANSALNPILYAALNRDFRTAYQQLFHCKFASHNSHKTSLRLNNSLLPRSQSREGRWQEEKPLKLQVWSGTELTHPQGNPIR
Method: Contractions of an isolated horn of uterus of a rat due to the effect of acetylcholine in a concentration of 1.10^-6 M were recorded on a paper tape.

[2] = Acute toxicity, guinea pigs; conditions: guinea pig, in vivo, male guinea pigs
Description: The results of the tests are generalized in Table 1.

dog's stomach = experiment: Gastric secretion in dogs, administration per os; assay type: in vivo
Method: Chronic experiments were performed on male dogs weighing 20 to 25 kg and having a gastric fistula; prior to experiments, the animals were starved for 18 hours.

gastric secretion = assay type: in vivo, human
Description: (§1) Special attention was paid to side effects and the reproductibility of the secretory response after repeated administrations of the drug.
The clinical investigation also helped to determine effective doses of the proposed preparation for submaximum and maximum tests and different forms of administration.

total acidity = experiment: Clinical reproducibility of secretory response (total acidity); assay type: in vivo, human
Description: as §1
Reproducibility of Secretory Response to Introduction
of Thidazine and Histamine with Reference to Total
Acidity Values (each group of patients includes 10 persons)
^(x) Percentage of difference is the relationship of the difference
between the total acidity values registered in the first and second tests
of a patient to the greater of these values.

Respiration = experiment: Effects on depth and rate of respiration; assay type: in vivo, rabbits and cats
Description: E. Effects on Depth and Rate of
Respiration (rabbits and cats)

male rabbits = conditions: rabbit, in vivo
Method: | D. Allergic Action | (Arthus-Sakharov Phenomenon) | Daily injections to male rabbits | weighing 3.0 kg, during 6 to 7 days: | test group, hypodermic injections of | 0.1 ml of 1% solution | control group, injections of 0.1 ml | of normal horse serum

arterial pressure [3] = experiment: Arterial pressure in rabbits; conditions: intravenous, thidazine 0.1 mg/kg, equimolar doses of histamine and histalog
Method: In a series of experiments of 18 rabbits weighing 2.5 to 3.5 kg, each having the common carotid artery in a cutaneous flap, the preparations were injected intravenously.

[4] = test system: gastric secretion of patients with duodenal ulceration; experiment: Clinical comparison in patients with duodenal ulceration; assay type: in vivo, human
Description: as §1
Histamine and Pentagastrin Upon Main Gastric Secretion
Characteristics of Patients With Duodenal Ulceration

Bulbar Conjunctiva = test system: Bulbar Conjunctiva; design: species or system guinea pigs, rabbits; conditions: in vivo
Description: C. Irritant Action of 1-5% Solutions On
intramuscular injection

[5] = test system: gastric secretion of patients of middle age group; experiment: Clinical test: effects of maximum doses upon gastric secretion of patients; assay type: in vivo, human; conditions: 2mg/kg; for Gastric Juice, Δ% / HCl Concentration, Δ% / Hourly HCl output, Δ%: 2nd versus 1st hour
Description: as §1

gastric juice = experiment: Acute Shay test (pylorus ligation); assay type: in vivo, rat; conditions: rats, 8 mg/kg intraperitoneally
Method: Twenty acute Shay tests were performed on male rats weighing 250 to 300 g. The pylorus of each of the animals was ligated 2 hours before the slaughter. The pH and volume of the gastric juice were determined. […] In the control group, pH of the gastric juice was 2.2, and the average HCl output was 0.12 mEq per animal. In the experimental animals, pH of the gastric juice was 1.6, and the HCl output was 0.41 mEq.

[6] = test system: gastric secretion of patients; experiment: Clinical comparison of thidazine with simple histamine test; assay type: in vivo, human; conditions: 20 patients; thidazine 1.5 mg/kg parenteral, histamine 0.01 mg/kg; >0.05
Description: as §1

Male guinea pigs = experiment: Chronic toxicity, daily intravenous injections in guinea pigs; assay type: in vivo
Description: Male guinea pigs weighing 200-250 g
1. Daily intravenous injections of thidazine

[7] = 0.1-0.2 mg/kg i/m, Control Period
[8] = 0.1-0.2 mg/kg i/v, Control Period
[9] = hypodermic, 1st hour (basal secretion)
[10] = hypodermic, 2nd hour (response to drug)
[11] = per os, 1st hour (basal secretion)
[12] = per os, 2nd hour (response to drug)
[13] = 20 mg/kg i/v daily 10 days, beginning of experiment
[14] = 20 mg/kg i/v daily 10 days, end of experiment

NCCc1nnc(N)s1 [Thidazine, 2-amino-5-(2-aminoethyl)-1,3,4-thiadiazole]
reduction of arterial pressure (arterial pressure [1]; anesthetized cats, 0.1 mg/kg intravenous): 30 mm of mercury | hypotensive reaction (arterial pressure [1]; cats, doses below 0.1 mg/kg intravenous): No hypotensive reaction was observed | EC50 (H1 -receptors): 398 µM | Emax (H2 -receptors): 15% | LD50 ([2]; ip, 280-350 g, i/p): 360 mg/kg | LD50 ([2]; iv, 200-250 g, i/v): 190 mg/kg | maximum level of gastric secretion (dog's stomach; per os, 100 mg per head): 26 mEq per hour | gastric secretion after administration per os (dog's stomach; thidazine 100 mg per head (parenterally and per os), histamine 10 and 20 mg, histalog 50 and 100 mg): can produce a maximum secretory effect when administered both parenterally and per os; also recorded: can produce a maximum secretion in a dog's stomach when administered both parenterally and perorally | dose for maximum secretion test (gastric secretion; hypodermic or intramuscular): 1.6 mg/kg | dose for submaximum secretion test (gastric secretion; hypodermic or intramuscular): 0.8 mg/kg | secretory activity compared with histamine and pentagastrin (gastric secretion; patients, adequate doses): close to histamine and pentagastrin | effectiveness per os compared with parenteral (gastric secretion; patients, tablets or solutions): as effectively as parenterally | dose for maximum secretion test (gastric secretion; per os): 2.0 mg/kg | dose for submaximum secretion test (gastric secretion; per os): 1.5 mg/kg | % of difference (fluctuations) of total acidity, first and second tests (total acidity; 0.7 mg/kg hypodermic): 15-42% | Average difference of total acidity (total acidity; 0.7 mg/kg hypodermic): 31% | % of difference (fluctuations) of total acidity, first and second tests (total acidity; 1.5mg/kg per os): 0-22% | Average difference of total acidity (total acidity; 1.5mg/kg per os): 7.5% | Respiration amplitude (Respiration; 1 mg/kg i/v, Control Period): 10.0 ± 0.8 mm | Respiration rate per minute (Respiration; 1 mg/kg i/v, Control Period): 120 ± 10.0 per minute | Respiration amplitude (Respiration; 1 mg/kg i/v, Test Period): 14.0 ± 0.4 mm | Respiration rate per minute (Respiration; 1 mg/kg i/v, Test Period): 85.0 ± 6.0 per minute | Respiration amplitude (Respiration; 2 mg/kg i/v, Control Period): 110.0 ± 7.0 mm | Respiration rate per minute (Respiration; 2 mg/kg i/v, Control Period): 100.0 ± 8.0 per minute | Respiration amplitude (Respiration; 2 mg/kg i/v, Test Period): 140 ± 20.0 mm | Respiration rate per minute (Respiration; 2 mg/kg i/v, Test Period): 85.0 ± 10.0 per minute | Respiration amplitude (Respiration; [7]): 160.0 ± 6.2 mm | Respiration rate per minute (Respiration; [7]): 79.0 ± 2.0 per minute | Respiration amplitude (Respiration; 0.1-0.2 mg/kg i/m, Test Period): 160 ± 10.1 mm | Respiration rate per minute (Respiration; 0.1-0.2 mg/kg i/m, Test Period): 78.0 ± 2.3 per minute | Respiration amplitude (Respiration; [8]): 220 ± 0.3 mm | Respiration rate per minute (Respiration; [8]): 90.0 ± 0.2 per minute | Respiration amplitude (Respiration; 0.1-0.2 mg/kg i/v, Test Period): 180 ± 0.1 mm | Respiration rate per minute (Respiration; 0.1-0.2 mg/kg i/v, Test Period): 85.0 ± 0.4 per minute | Allergic Action (Arthus-Sakharov Phenomenon) (male rabbits): Negative reaction | reduction of arterial pressure (arterial pressure [3]): 12 mm of mercury | Chymosin Output ([4]; 1st hour (basal secretion)): 17.3 ± 0.3 units per hour | Pepsin Output ([4]; 1st hour (basal secretion)): 4.0 ± 0.7 units per hour | Secretion, milliequivalents per hour ([4]; 1st hour (basal secretion)): 7.25 ± 0.9 Milliequivalents per hour | Chymosin Output ([4]; 2nd hour): 218.2 ± 4.0 units per hour | Pepsin Output ([4]; 2nd hour): 17.8 ± 2.3 units per hour | Secretion, milliequivalents per hour ([4]; 2nd hour): 23.9 ± 1.8 Milliequivalents per hour | Irritant Action (Bulbar Conjunctiva): Negative reaction | Gastric Juice [5, 9]: 87.0 ml per hour | HCl Concentration [5, 9]: 43.9 milliequivalents per liter | Gastric Juice [5, 10]: 200.5 ml per hour | HCl Concentration [5, 10]: 100.8 milliequivalents per liter | Gastric Juice, Δ% ([5]; hypodermic): +130.5% | HCl Concentration, Δ% ([5]; hypodermic): +129.6% | Hourly HCl output, Δ% ([5]; hypodermic): +471.9% | Hourly HCl output ([5]; hypodermic, 11 observations, 1st hour (basal secretion)): 8.2 milliequivalents per hour | Hourly HCl output ([5]; hypodermic, 11 observations, 2nd hour (response to drug)): 18.3 milliequivalents per hour | Gastric Juice [5, 11]: 102.1 ml per hour | HCl Concentration [5, 11]: 33.3 milliequivalents per liter | Gastric Juice [5, 12]: 227.9 ml per hour | HCl Concentration [5, 12]: 103.2 milliequivalents per liter | Gastric Juice, Δ% ([5]; per os): +123% | HCl Concentration, Δ% ([5]; per os): +209.9% | Hourly HCl output, Δ% ([5]; per os): +402.3% | Hourly HCl output ([5]; per os, 13 observations, 1st hour (basal secretion)): 4.3 milliequivalents per hour | Hourly HCl output ([5]; per os, 13 observations, 2nd hour (response to drug)): 21.6 milliequivalents per hour | increase of output of hydrochloric acid after ligation of the pylorus (gastric juice): increased the output of hydrochloric acid more than threefold | HCl Output (gastric juice; control group 0.12 mEq per animal): 0.41 mEq | pH of the gastric juice (gastric juice; control group 2.2): 1.6 | Free Acidity [6]: 77.0+20 units | HCl Output [6]: 12.2 ± 0.7 milliequivalents per hour | Peak HCl Output [6]: 8.9+0.3 milliequivalents | Total Acidity [6]: 90.3+22 units | Coagulability of Blood (Male guinea pigs; 20 mg/kg i/v daily 10 days): No changes | Differential Blood Count (Male guinea pigs; 20 mg/kg i/v daily 10 days): No significant changes | ECG at beginning and end of experiment (Male guinea pigs; 20 mg/kg i/v daily 10 days): No significant changes | Average weight in test group (Male guinea pigs; 20 mg/kg i/v daily 10 days, Control Period (beginning)): 220.0 ± 58 g | Average weight in test group (Male guinea pigs; 20 mg/kg i/v daily 10 days, Test Period (end)): 252.3 ± 50 g | ESR, test group (Male guinea pigs; [13]): 2 mm | Erythrocytes, test group (Male guinea pigs; [13]): 3.75 ± 0.1 mln. | Hemoglobin, test group (Male guinea pigs; [13]): 11.8 ± 0.1% | Leukocytes, test group (Male guinea pigs; [13]): 11360 ± 900 thous. | ESR, test group (Male guinea pigs; [14]): 2 mm | Erythrocytes, test group (Male guinea pigs; [14]): 3.93 ± 0.1 mln. | Hemoglobin, test group (Male guinea pigs; [14]): 12.4 ± 0.3% | Leukocytes, test group (Male guinea pigs; [14]): 9500 ± 835 thous. | effect upon growth and development and blood composition (Male guinea pigs; two animal species, 1/10 LD50): no significant effect | pathological changes in the vital organs (Male guinea pigs; two animal species, 1/10 LD50): causes no pathological changes in the vital organs
